According to patent publication US20240067655A1 (NEURON23, INC., priority 2020, published 2024):

Legend:
[1] = target: T1, wt human LRRK2, catalytic site (Homo sapiens, UniProt Q5S007); experiment: TR-FRET LanthaScreen Eu Kinase Binding Assay, LRRK2 wt (Example 72); details: Example 72 text; one statement for LRRK2 (Wt) and LRRK2 (G2019); read-out: IC50, Inhibitory Activity Toward LRRK2 (Wt)
T1 construct: wt human LRRK2, catalytic site; purchased ThermoFisher/USA
Procedure: (§1) The compounds in Tables 5-6 were tested for their inhibitory effect on a set of kinases according to the following procedures.
(§2) The basic protocol for TR-FRET LanthaScreen Eu Kinase Binding Assay inhibitor studies were performed as follows. LanthaScreen Kinase Binding Assays (ThermoFisher/USA) to evaluate inhibitors were performed by addition of 5 μl of test compound in corresponding DMSO dilutions/5 μl of kinase/antibody mixture, 5 μl of tracer into 384 well small volume plates. After incubation for 1 hour at room temperature, plates were read. Data analysis of emission ratios was according to LanthaScreen Eu Kinase Binding Assay protocol.
(§3) Kinase and assay components were adjusted to final concentrations according to the kit protocol. For LRRK2: 5 nM wt human LRRK2, catalytic site, or G2019S human LRRK2, catalytic site (ThermoFisher/USA), 2 nM Eu-Anti-GST Antibody, 10 nM Kinase Tracer 236 in 1× Kinase Buffer A. For NUAK1: 8 nM wt human NUAK1, full length (ThermoFisher/USA), 2 nM Eu-Anti-His Antibody, 5 nM Kinase Tracer 236 in 1× Kinase Buffer A.

[2] = target: T2, G2019S human LRRK2, catalytic site (Homo sapiens, UniProt Q5S007, G2019S); experiment: TR-FRET LanthaScreen Eu Kinase Binding Assay, LRRK2 G2019S (Example 72); details: Example 72 text; one statement for LRRK2 (Wt) and LRRK2 (G2019); read-out: IC50, Inhibitory Activity Toward LRRK2 (G2019)
T2 construct: G2019S human LRRK2, catalytic site; purchased ThermoFisher/USA
T2 sequence (Q5S007 1879-2138 G2019S limits assumed): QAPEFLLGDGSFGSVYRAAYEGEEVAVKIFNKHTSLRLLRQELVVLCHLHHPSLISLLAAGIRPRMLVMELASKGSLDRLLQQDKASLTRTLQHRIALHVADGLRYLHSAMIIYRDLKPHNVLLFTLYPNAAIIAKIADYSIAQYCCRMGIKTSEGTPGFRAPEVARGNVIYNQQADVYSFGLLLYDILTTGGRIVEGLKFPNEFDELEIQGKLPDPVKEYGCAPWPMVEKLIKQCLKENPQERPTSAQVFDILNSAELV
Procedure: as §1, §2, §3

[3] = target: T3, wt human NUAK1, full length (Homo sapiens, UniProt O60285); experiment: TR-FRET LanthaScreen Eu Kinase Binding Assay, NUAK1 (Example 72); details: Example 72 text; read-out: IC50, Inhibitory Activity Toward NUAK1
T3 construct: 8 nM wt human NUAK1, full length (ThermoFisher/USA); purchased ThermoFisher/USA
T3 sequence (O60285 1-661): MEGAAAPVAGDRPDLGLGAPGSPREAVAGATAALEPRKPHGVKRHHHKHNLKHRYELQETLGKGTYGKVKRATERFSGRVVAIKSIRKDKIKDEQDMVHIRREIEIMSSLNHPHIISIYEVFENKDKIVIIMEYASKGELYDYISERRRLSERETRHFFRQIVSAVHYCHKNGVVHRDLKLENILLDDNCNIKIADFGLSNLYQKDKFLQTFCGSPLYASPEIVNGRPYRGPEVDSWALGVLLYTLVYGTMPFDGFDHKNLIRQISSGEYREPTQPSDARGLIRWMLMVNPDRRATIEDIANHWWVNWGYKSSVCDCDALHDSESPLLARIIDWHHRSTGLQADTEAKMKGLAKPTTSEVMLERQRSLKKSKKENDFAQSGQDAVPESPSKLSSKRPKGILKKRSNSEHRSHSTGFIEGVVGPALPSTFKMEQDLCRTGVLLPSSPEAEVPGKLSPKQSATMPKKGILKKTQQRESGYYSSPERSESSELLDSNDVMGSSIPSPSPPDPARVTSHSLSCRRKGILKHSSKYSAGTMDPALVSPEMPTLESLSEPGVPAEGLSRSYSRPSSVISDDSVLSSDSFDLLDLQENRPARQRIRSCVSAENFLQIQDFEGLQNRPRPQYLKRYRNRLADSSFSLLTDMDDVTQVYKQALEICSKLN
Procedure: as §1, §2, §3

[4] = target: T4, wt human TYK2, catalytic site (Homo sapiens, UniProt P29597); experiment: HTRF KinEASE assay, TYK2 (Example 72); format: biochemical; details: Example 72 text; read-out: IC50, Inhibitory Activity Toward TYK2
T4 construct: wt human TYK2, catalytic site; purchased SignalChem/CAN
T4 sequence (P29597 897-1176 limits assumed): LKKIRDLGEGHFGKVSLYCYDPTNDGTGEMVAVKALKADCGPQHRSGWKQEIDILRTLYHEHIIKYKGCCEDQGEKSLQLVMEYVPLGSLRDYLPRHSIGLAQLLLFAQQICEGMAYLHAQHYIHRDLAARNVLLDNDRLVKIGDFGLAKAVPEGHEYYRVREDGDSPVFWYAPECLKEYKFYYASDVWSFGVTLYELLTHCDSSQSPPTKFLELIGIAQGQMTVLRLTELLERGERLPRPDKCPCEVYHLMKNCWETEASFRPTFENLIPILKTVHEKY
Procedure: as §1
Basic protocol for HTRF KinEASE assay (Cisbio/FRA) inhibitor studies involved two steps:
Enzymatic step: Addition of 4 μl of test compound in corresponding DMSO dilutions, 4 μl of kinase/substrate mixture, 2 μl of ATP into 384 well small volume plates. Incubation for at least 30 minutes at room temperature.
Detection step: Addition of 5 μl antibody and 5 μl streptavidin-XL665, read plate after 60 minutes. Data analysis of emission ratios according to KinEASE assay protocol.
Kinase and assay components were adjusted to final concentrations according to the kit protocol. For TYK2: 2 nM wt human TYK2, catalytic site (SignalChem/CAN), 1 μM HTRF KinEASE-TK Substrate-biotin, 1 μM ATP in 1× Kinase Buffer

T1 sequence (Q5S007 1879-2138 limits assumed): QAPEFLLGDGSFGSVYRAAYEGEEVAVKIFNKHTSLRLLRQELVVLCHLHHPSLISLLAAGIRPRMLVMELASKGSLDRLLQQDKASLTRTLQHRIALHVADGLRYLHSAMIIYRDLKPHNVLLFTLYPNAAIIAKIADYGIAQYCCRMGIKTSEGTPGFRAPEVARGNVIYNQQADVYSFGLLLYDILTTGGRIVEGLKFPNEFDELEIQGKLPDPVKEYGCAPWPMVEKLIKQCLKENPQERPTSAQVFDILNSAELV

| IC50 [1] | IC50 [2] | IC50 [3] | IC50 [4] | SMILES |
| --- | --- | --- | --- | --- |
| < 10 nM | < 10 nM | 10 to 100 nM | – | Fc1cccc(F)c1C1=Nc2c[nH]nc2-c2cccc3ncn1c23 [Compound 301, 3-(2,6-difluorophenyl)-7H-1,2a,4,6,7-pentaazabenzo[cd]cyclopenta[f]azulene] |
| < 10 nM | < 10 nM | – | – | Fc1cccc(F)c1C1=Nc2c[nH]nc2-c2cccc3cnn1c23 [Compound 302, 4-(2,6-difluorophenyl)-8H-pyrazolo[4′,3′:4,5][1,3]diazepino[6,7,1-hi]indazole] |
| 100 to 1000 nM | 100 to 1000 nM | 10 to 100 nM | 100 to 1000 nM | Fc1cccc(F)c1C1=Nc2cn[nH]c2-c2cncc3ncn1c23 [Compound 303, 3-(2,6-difluorophenyl)-7H-1,2a,4,6,7,9-hexaazabenzo[cd]cyclopenta[f]azulene] |
| 10 to 100 nM | 10 to 100 nM | 10 to 100 nM | – | Fc1cccc(F)c1C1=Nc2cn[nH]c2-c2cccc3nnn1c23 [Compound 304, 3-(2,6-difluorophenyl)-7H-1,2,2a,4,6,7-hexaazabenzo[cd]cyclopenta[f]azulene] |
| 10 to 100 nM | 10 to 100 nM | 10 to 100 nM | – | Fc1cccc(Cl)c1C1=Nc2cn[nH]c2-c2cccc3cnn1c23 [Compound 306, 4-(2-chloro-6-fluorophenyl)-8H-pyrazolo[4′,3′:4,5][1,3]diazepino[6,7,1-hi]indazole] |
| 10 to 100 nM | 10 to 100 nM | 10 to 100 nM | – | Fc1cccc(F)c1C1=Nc2cn[nH]c2-c2nnc3cccn1c2-3 [Compound 307, 9-(2,6-difluorophenyl)-3H-2,3,4,5,8a,10-hexaazabenzo[cd]cyclopenta[h]azulene] |
| < 10 nM | < 10 nM | 10 to 100 nM | – | Fc1cccc(F)c1C1=Nc2cn[nH]c2-c2cnn3c2N1CCC3 [Compound 308, 9-(2,6-difluorophenyl)-3,6,7,8-tetrahydro-2,3,5,5a,8a,10-hexaazabenzo[cd]cyclopenta[h]azulene] |
| < 10 nM | < 10 nM | – | – | Clc1cccc(Cl)c1C1=Nc2c[nH]nc2-c2cccc3cnn1c23 [Compound 309, 4-(2,6-dichlorophenyl)-8H-pyrazolo[4′,3′:4,5][1,3]diazepino[6,7,1-hi]indazole] |
| 10 to 100 nM | 10 to 100 nM | – | – | CC(=O)n1cc2c3c(cccc31)-c1n[nH]cc1N=C2c1c(F)cccc1F [Compound 311, 1-(3-(2,6-difluorophenyl)pyrazolo[3′,4′:6,7]azepino[3,4,5-cd]indol-1(7H)-yl)ethan-1-one] |
| < 10 nM | < 10 nM | 10 to 100 nM | – | Cc1cn2c3c(cccc13)-c1n[nH]cc1N=C2c1c(F)cccc1F [Compound 313, 10-(2,6-difluorophenyl)-7-methyl-3H-pyrazolo[4′,3′:4,5][1,3]diazepino[6,7,1-hi]indole] |
| 100 to 1000 nM | 100 to 1000 nM | – | 100 to 1000 nM | Fc1cc2c3c(cnn3C(c3c(F)cccc3F)=Nc3c[nH]nc3-2)c1 [Compound 314, 4-(2,6-difluorophenyl)-10-fluoro-7H-pyrazolo[4′,3′:4,5][1,3]diazepino[6,7,1-hi]indazole] |
| < 10 nM | < 10 nM | 10 to 100 nM | – | Fc1ccc(F)c(C2=Nc3c[nH]nc3-c3cccc4cnn2c34)c1 [Compound 315, 4-(2,5-difluorophenyl)-8H-pyrazolo[4′,3′:4,5][1,3]diazepino[6,7,1-hi]indazole] |
| 10 to 100 nM | 10 to 100 nM | – | – | Fc1ccccc1C1=Nc2c[nH]nc2-c2cccc3cnn1c23 [Compound 316, 4-(2-fluorophenyl)-8H-pyrazolo[4′,3′:4,5][1,3]diazepino[6,7,1-hi]indazole] |
| < 10 nM | < 10 nM | 10 to 100 nM | – | Fc1cccc(F)c1C1=Nc2cn[nH]c2-c2ccc(F)c3cnn1c23 [Compound 317, 4-(2,6-difluorophenyl)-11-fluoro-8H-pyrazolo[4′,3′:4,5][1,3]diazepino[6,7,1-hi]indazole] |
